Our source for the IC50 values is patent EP4541797A1, “CAMPTOTHECIN DERIVATIVE, METHOD FOR PREPARING SAME, AND USE THEREOF” (Hangzhou Adcoris Biopharma Co., Ltd, priority 2022, dated 2024).

One test has as its system OE33 cells. Briefly: Inhibitory activity on cancer cell growth (CCK-8, 72 h), OE33 cells. The format is cell-based. The following applies: human esophageal cancer cells OE33, 72 h incubation. Here is the method: (§1) Human esophageal cancer cells OE33, human breast adenocarcinoma cells SK-BR-3 and human gastric cancer cells NCI-N87 were cultured in RPMI1640 (Cellmax) supplemented with 10% fetal bovine serum (Cellmax) respectively. Cells in the exponential growth phase were diluted to a concentration of 1×10^5cells/mL by culture medium and added to 96-well cell culture plates at 100µL per well, then incubated overnight in a 37°C incubator with 5% CO2. On the following day, the test compounds and control compounds were diluted to concentrations of 10000 nM, 2000 nM, 400 nM, 80 nM, 16 nM, 3.2 nM, 0.64 nM, and 0.13 nM by culture medium and added to the 96-well cell culture plates at 2µL per well, with three replicate wells for each concentration. Negative control and blank control groups without the addition of compounds were supplemented with 2µL of the dilution liquid per well. After the addition of the compounds, the plates were returned to the 37°C incubator with 5% CO2 to continue incubation for 72 h. After incubation, the cell culture plates were removed, and the culture medium was aspirated using a pipette. Then, 100µL of culture medium containing 10% CCK-8 was added to each well, and the plates were incubated at 37°C for 3 h. After incubation, the plates were removed, kept in the dark, and placed in ELISA plate. Absorbance was measured at 630nm as the reference wavelength and 450nm as the test wavelength. The IC50 values (Tables 1-3) were calculated using the four-parameter logistic regression method in GraphPad, based on the absorbance values. SN38 (7-ethyl-10-hydroxycamptothecin) and 10CPT (10-hydroxycamptothecin) were used as control compounds. For the IC50 values, wherein "++++" indicates an IC50 < 50 nM; "+++" indicates an IC50 between 50 nM and 100 nM; "++" indicates an IC50 between 100 nM and 500 nM; and "+" indicates an IC50 > 500 nM. Table 1: Inhibitory activity of compounds to inhibit the growth of OE33 cells

Another test has as its system SK-BR-3 cells. Put plainly: Inhibitory activity on cancer cell growth (CCK-8, 72 h), SK-BR-3 cells. The format is cell-based. The following applies: human breast adenocarcinoma cells SK-BR-3, 72 h incubation. The method, then: as §1
The mark [1] stands for this setting: Homo sapiens, OE33, 72 h, read-out: IC50.
[2] abbreviates: Homo sapiens, SK-BR-3, 72 h, read-out: IC50.

Like-named read-outs stand apart in the source and are kept apart here.

What is called IC50 is the concentration that gives 50% inhibition. Regarding `CC[C@@]1(O)C(=O)OCc2c1cc1n(c2=O)Cc2cc3c(CNCCC4CCNCC4)c(O)ccc3nc2-1` [Compound 30, 9-(piperidine-4-ethylamine)methyl-10-hydroxycamptothecin], the IC50 with OE33 cells (Homo sapiens, OE33, 72 h) was 100 to 500 nM. As for `CC[C@@]1(O)C(=O)OCc2c1cc1n(c2=O)Cc2cc3c(CN(C)[C@@H](C)C(=O)O)c(O)ccc3nc2-1` [Compound 36, 9-(N-methyl-L-alanine)methyl-10-hydroxycamptothecin], in the test on OE33 cells (setting [1]), the IC50 lay in the range of 100 to 500 nM. The same measure, in the same setting: the result for `CC[C@@]1(O)C(=O)OCc2c1cc1n(c2=O)Cc2cc3c(CN4CCC5(CCNCC5)CC4)c(O)ccc3nc2-1` [Compound 29, 9-(3-(undeca-5,5-spirocyclo-3,9-diazane))methyl-10-hydroxycamptothecin] reads 100 to 500 nM. With `CC[C@@]1(O)C(=O)OCc2c1cc1n(c2=O)Cc2cc3c(CN4CCC(OC)CC4)c(O)ccc3nc2-1` [Compound 5, 9-(1-(4-methoxypiperidine))methyl-10-hydroxycamptothecin], the IC50 with OE33 cells (setting [1]) is 50 to 100 nM; in the test on SK-BR-3 cells (setting [2]) it was above 500 nM.

As to `CC[C@@]1(O)C(=O)OCc2c1cc1n(c2=O)Cc2cc3c4c(ccc3nc2-1)OCN(CC(F)(F)F)C4` [Compound 40, 3-(N-(2,2,2-trifluoroethyl))-1.3-oxazino[5,6][9,10]camptothecin], the IC50 in the test on OE33 cells (setting [1]) was 100 to 500 nM. For `CC[C@@]1(O)C(=O)OCc2c1cc1n(c2=O)Cc2cc3c(CN4CCNCC4)c(O)ccc3nc2-1` [Compound 2, 9-(1-piperazine)methyl-10-hydroxycamptothecin], the IC50 with OE33 cells (Homo sapiens, OE33, 72 h) lay within 50 to 100 nM; with SK-BR-3 cells (Homo sapiens, SK-BR-3, 72 h), 50 to 100 nM. With `CC[C@@]1(O)C(=O)OCc2c1cc1n(c2=O)Cc2cc3c(CN(C)CCCN)c(O)ccc3nc2-1` [Compound 25, 9-(1-methyl-3-aminopropylamine)methyl-10-hydroxycamptothecin], in the test on OE33 cells (setting [1]), the IC50 is 100 to 500 nM. Regarding `CC[C@@]1(O)C(=O)OCc2c1cc1n(c2=O)Cc2cc3c(CN4CCC[C@H]4C(=O)OC(C)(C)C)c(O)ccc3nc2-1` [Compound 31, 9-(L-prolinetert-butyl ester)methyl-10-hydroxycamptothecin], the IC50 in the test with OE33 cells (setting [1]) lay within 100 to 500 nM.

For the molecule `CC[C@@]1(O)C(=O)OCc2c1cc1n(c2=O)Cc2cc3c(CNN4CCOCC4)c(O)ccc3nc2-1` [Compound 18, 9-(morpholin-4-amine)methyl-10-hydroxycamptothecin], the IC50 is 100 to 500 nM with OE33 cells (Homo sapiens, OE33, 72 h) and 50 to 100 nM with SK-BR-3 cells (Homo sapiens, SK-BR-3, 72 h). For `CC[C@@]1(O)C(=O)OCc2c1cc1n(c2=O)Cc2cc3c(CN4CCN(C(=O)C5CC5)CC4)c(O)ccc3nc2-1` [Compound 6, 9-(1-(4-cyclopropylcarbonylpiperazine))methyl-10-hydroxycamptothecin] the same measures were 100 to 500 nM and 50 to 100 nM. On to `CC[C@@]1(O)C(=O)OCc2c1cc1n(c2=O)Cc2cc3c(CN4CCC(C(=O)OC)CC4)c(O)ccc3nc2-1` [Compound 33, 9-(1-piperidine-4-methylformate)methyl-10-hydroxycamptothecin], for which the IC50 in the test on OE33 cells (setting [1]) was 100 to 500 nM. The same measure, in the same setting: the result for `CC[C@@]1(O)C(=O)OCc2c1cc1n(c2=O)Cc2cc3c4c(ccc3nc2-1)OCN(N1CCOCC1)C4` [Compound 22, 3-(N-morpholine)-1.3-oxazino[5,6][9,10]camptothecin] reads 100 to 500 nM. In the test on OE33 cells (Homo sapiens, OE33, 72 h), `CC[C@@]1(O)C(=O)OCc2c1cc1n(c2=O)Cc2cc3c(CN(C)C4CCOCC4)c(O)ccc3nc2-1` [Compound 14, 9-(N-methyltetrahydropyran-4-amine)methyl-10-hydroxycamptothecin] had an IC50 of 100 to 500 nM.

As for `CC[C@@]1(O)C(=O)OCc2c1cc1n(c2=O)Cc2cc3c(CN(C)CC4CCNCC4)c(O)ccc3nc2-1` [Compound 28, 9-(N-methyl(piperidine-4-methyl)amine)methyl-10-hydroxycamptothecin], the half-inhibitory concentration (IC50) in the test with OE33 cells (Homo sapiens, OE33, 72 h) lay within 100 to 500 nM. Regarding `CC[C@@]1(O)C(=O)OCc2c1cc1n(c2=O)Cc2cc3c(CNC4CCOCC4)c(O)ccc3nc2-1` [Compound 37, 9-(tetrahydropyran-4-amine)methyl-10-hydroxycamptothecin], the IC50 with OE33 cells (setting [1]) was 100 to 500 nM.

For `CC[C@@]1(O)C(=O)OCc2c1cc1n(c2=O)Cc2cc3c(CN(C)C4CCC(O)CC4)c(O)ccc3nc2-1` (stereo partly drawn) [Compound 16, 9-(N-methyl-trans-4-hydroxycyclohexylamine)methyl-10-hydroxycamptothecin], in the test with OE33 cells (Homo sapiens, OE33, 72 h, numeric value or bound, read-out: IC50), the IC50 was 0.221 nM. Turning to `CC[C@@]1(O)C(=O)OCc2c1cc1n(c2=O)Cc2cc3c(CN4CCN(C(C)=O)CC4)c(O)ccc3nc2-1` [Compound 7, 9-(1-(4-acetylpiperazine))methyl-10-hydroxycamptothecin], the IC50 with OE33 cells (setting [1]) and in the test on SK-BR-3 cells (setting [2]) was 50 to 100 nM throughout. `CCc1c2c(nc3ccc(O)cc13)-c1cc3c(c(=O)n1C2)COC(=O)[C@]3(O)CC` [SN38, 7-ethyl-10-hydroxycamptothecin, reference compound]: the IC50 in the test with OE33 cells (read-out: IC50) and in the test with SK-BR-3 cells (read-out: IC50) was below 50 nM in each case. `CC[C@@]1(O)C(=O)OCc2c1cc1n(c2=O)Cc2cc3c(CN4CCC(C(N)=O)CC4)c(O)ccc3nc2-1` [Compound 8]: the IC50 with OE33 cells (Homo sapiens, OE33, 72 h) fell in the range of 100 to 500 nM; with SK-BR-3 cells (Homo sapiens, SK-BR-3, 72 h), 100 to 500 nM. Take `CC[C@@]1(O)C(=O)OCc2c1cc1n(c2=O)Cc2cc3c(CN4CCC(N)CC4)c(O)ccc3nc2-1` [Compound 1, 9-(1-(4-aminopiperidine))methyl-10-hydroxycamptothecin]: the IC50 with OE33 cells (setting [1]) is 100 to 500 nM; in the test with SK-BR-3 cells (setting [2]) it was 50 to 100 nM. `CC[C@@]1(O)C(=O)OCc2c1cc1n(c2=O)Cc2cc3c(CN4CCC(ON)CC4)c(O)ccc3nc2-1` [Compound 3, 9-(1-(4-aminoxypiperidine))methyl-10-hydroxycamptothecin]: the IC50 with OE33 cells (setting [1]) was in the range of 100 to 500 nM. As to `CC[C@@]1(O)C(=O)OCc2c1cc1n(c2=O)Cc2cc3c(CN(C)CCCCN)c(O)ccc3nc2-1` [Compound 11, 9-(N-4-aminobutyl-N-methylamino)methyl-10-hydroxycamptothecin], the half-inhibitory concentration (IC50) with OE33 cells (Homo sapiens, OE33, 72 h) was 100 to 500 nM; in the test on SK-BR-3 cells (Homo sapiens, SK-BR-3, 72 h) it was 100 to 500 nM. For `CC[C@@]1(O)C(=O)OCc2c1cc1n(c2=O)Cc2cc3c(CNCC4CCOCC4)c(O)ccc3nc2-1` [Compound 43, 9-(tetrahydropyran-4-methylamine)methyl-10-hydroxycamptothecin], in the test on OE33 cells (Homo sapiens, OE33, 72 h), the IC50 is 100 to 500 nM. Turning to `CC[C@@]1(O)C(=O)OCc2c1cc1n(c2=O)Cc2cc3c(CN(C)CCO)c(O)ccc3nc2-1` [Compound 12, 9-(N-methylhydroxyethylamino)methyl-10-hydroxycamptothecin], the IC50 with OE33 cells (Homo sapiens, OE33, 72 h) was 100 to 500 nM; in the test on SK-BR-3 cells (Homo sapiens, SK-BR-3, 72 h) it was 100 to 500 nM. Regarding `CC[C@@]1(O)C(=O)OCc2c1cc1n(c2=O)Cc2cc3c(CN4CCC(C(=O)O)CC4)c(O)ccc3nc2-1` [Compound 34, 9-(1-piperidine-4-carboxyllic acid)methyl-10-hydroxycamptothecin], the IC50 in the test with OE33 cells (setting [1]) is above 500 nM. Turning to `CC[C@@]1(O)C(=O)OCc2c1cc1n(c2=O)Cc2cc3c(CN[C@@H](C)C(=O)OC(C)(C)C)c(O)ccc3nc2-1` [Compound 35, 9-(L-alaninetert-butyl ester)methyl-10-hydroxycamptothecin], in the test with OE33 cells (setting [1]), the IC50 was 50 to 100 nM.

Regarding `CCNCc1c(O)ccc2nc3c(cc12)Cn1c-3cc2c(c1=O)COC(=O)[C@]2(O)CC` [Compound 20, 9-(ethylamine)methyl-10-hydroxycamptothecin], the IC50 in the test with OE33 cells (Homo sapiens, OE33, 72 h) lay in the range of 100 to 500 nM. Turning to `CC[C@@]1(O)C(=O)OCc2c1cc1n(c2=O)Cc2cc3c(CN(C)NC(=O)OC(C)(C)C)c(O)ccc3nc2-1` [Compound 23, 9-(1-methyl-2-Boc-hydrazine)methyl-10-hydroxycamptothecin], the IC50 in the test on OE33 cells (setting [1]) was below 50 nM.

The molecule `CC[C@@]1(O)C(=O)OCc2c1cc1n(c2=O)Cc2cc3c(CN4CCN(C(=O)CO)CC4)c(O)ccc3nc2-1` [Compound 46, 9-(1-(4-hydroxyacetylpiperazine))methyl-10-hydroxycamptothecin] displayed an IC50 in the test with OE33 cells (Homo sapiens, OE33, 72 h) of 100 to 500 nM. With `CC[C@@]1(O)C(=O)OCc2c1cc1n(c2=O)Cc2cc3c(CN[C@H]4CC[C@H](OC)CC4)c(O)ccc3nc2-1` [Compound 42, 9-(trans-4-methoxycyclohexylamine)methyl-10-hydroxycamptothecin], the IC50 in the test with OE33 cells (setting [1]) is 100 to 500 nM. Regarding `CC[C@@]1(O)C(=O)OCc2c1cc1n(c2=O)Cc2cc3c(CN(C)CCN)c(O)ccc3nc2-1` [Compound 13, 9-(N-methyl-N-aminoethylamino)methyl-10-hydroxycamptothecin], the half-maximal inhibitory concentration (IC50) in the test with OE33 cells (setting [1]) is 100 to 500 nM. Consider `CC[C@@]1(O)C(=O)OCc2c1cc1n(c2=O)Cc2cc3c(CNN4CCCCC4)c(O)ccc3nc2-1` [Compound 26, 9-(piperidine-1-amine)methyl-10-hydroxycamptothecin], for which the 50% inhibitory concentration (IC50) with OE33 cells (setting [1]) lay within 100 to 500 nM.
